The source of these data is patent US4526894A, “Pharmaceutically active 4-hydroxy-3-benzoyl-2-quinolone derivatives” (Nippon Shinyaku Co. Ltd., priority 1982, dated 1985).

The subject of data set [1] is passive cutaneous anaphylaxis (DNP-As antigen) in Wister strain rats. The data set is described as follows: passive cutaneous anaphylaxis (PCA) assay in rats. Type of data set: in vivo. The following applies: 10 mg/kg oral, one hour before antigen; for inhibition in vivo at 10 mg/kg: Rattus norvegicus, po, 1 h, read-out: PCA Inhibition Ratio %. The procedure: (i) Antiserum abundant in homocytotropic antibody is prepared by the same method as Tada and Okumura did (cf. Journal of Immunology, vol. 106, page 1002, 1976). Thus, 1 mg (calculated as an amount of protein) of DNP-As (2,4-dinitrophenyl-coupled ascaris extract) prepared by methods of Strejan and Campbell (Journal of Immunology, vol. 98, p. 893, 1971) and of Eisen (Journal of Amer. Chem. Soc., vol. 85, p 4593, 1953) and 1×10^10pertussis vaccine are administered to each paw of Wister strain rats (180 to 200 grams body weights) by dividing the dose by four. Five days later, 0.5 mg of DNP-As is administered into muscle of back. Eight days later from the initial immunization, blood is taken from descending aorta under anesthetizing with ether, the resulting serum is stored at -80° and is melted before use.
(ii) Effect of tested compounds is investigated as follows:
Anti-serum obtained by the method (i) is diluted with physiological saline solution double by double successively and 0.05 ml of each diluted solution is administered into back of Wister strain rats (140 to 160 grams body weight) subcutaneously. After 72 hours, a solution of 2 mg (calculated as protein) of DNP-As and 2.5 mg of Evans Blue dissolved in 1 ml of physiological saline solution is administered intraveously at a dose of 5 ml/kg. After 30 minutes from antigen solution administration, the animals are killed and diameters of blue spots appeared at the place where antiserum is administered are measured. The PCA test is conducted by the same method as already described using a diluted solutions of antiserum which always show 10 mm or more of spot diameters and the effect of the test compounds is judged. Thus antiserum diluted solutions are administered to two places in back. Test compounds are administered orally at the dose of 10 mg/kg one hour before administration of antigen solution. From the skin of reacted parts of killed animals, leaked or emitted dyestuff is extracted and the amount of the dyestuff is measured. The inhibition ratio is calculated by the following expression:
Inhibition Ratio=(1-A'/A)×100
in which A' is an amount of dyestuff in the group treated with the test compounds and A is that in the control group.

For data set [2], the system named is SRS-A (slow reacting substance of anaphylaxis). The data set is described as follows: Anti-SRS-A action using isolated ileus of guinea pigs. The procedure:
Anti-SRS-As action (An anti-action against slow reacting substance of anaphylaxis).
Hartley strain male guinea pigs (300 to 350 grams body weight) are killed and 1.0 to 1.5 cm of ileus is immeidiately excised from ileocecal parts and is suspended in 10 ml of Tyrode solution (95% O2 -5% CO2 saturation) containing 10^-7 g/ml of atropine and 10^-6 g/ml of pyrilamine. SRS-A (20 units) (the amount of SRS-A showing the same shrinkage as 5 ng of histamine is defined as 1 unit) prepared by using sensitized guinea pig lung is given to cause shrinkage there. Then antagonistic action of test compounds treated five minutes ago against the shrinkage is measured and recorded via isotonic transducer.
Inhibition Ratio of Test Compd (%)=(1-A'/A)×100
in which A' is a height of shrinkage of SRS-A+test compound and A is that of SRS-A.

The subject of data set [3] is carrageenin edema in SD-strain rats. Description: Carrageenin edema at hind foot of rats (anti-inflammatory action). Type of data set: in vivo, rat. The following applies: for inhibition in vivo at 200 mg/kg: Rattus norvegicus, po, 3 h, read-out: % Inhibition of carrageenin edema. The protocol:
The anti-inflammatory action of the compounds of the present invention were evaluated by measuring the inhibition against carrageein edema as set forth below.
Carrageenin edema at hind foot of rats:
SD-strain rats of body weights of around 150 grams were used, each group consisting of five rats. A solution (0.1 ml) of 0.5% carrageenin dissolved in physiological saline water was hypodermically injected into right hind foot pat of the rats and, one hour prior to the injection of carrageenin, 200 mg/kg of test compound was given per os. Foot volumes of the rats before the carrageenin treatment and those of three hours after the treatment were measured and the differences were compared with those of the control group to determine the effect of the compounds.
For orientation: Carrageenan injected into the paw causes an acute inflammation.

The next data set has as its system male mice. Description: Acute oral toxicity in mice (lethal ratio). The following applies: 400 mg/kg oral, two weeks, four mice per group. Type of data set: in vivo. The protocol:
Acute toxicity was determined two weeks after oral administration of 400 mg/kg to male mice. Four mice (denominator) are used in each group and the dead numbers are given as the numerator. The compounds of the present invention show little, if any, toxicity.
Lethal ratios for all other compounds are 0/4 at doses of […]. It is therefore apparent that they are all safe compounds.

Setting [4] is: 10^-6 M; guinea pig ileus, SRS-A 20 units; 5 min, 1 µM.
The mark [5] stands for this setting: 200 mg/kg per os one hour before carrageenin, 3 hours after.

Each structure is given as a SMILES string. Counter-ions that a name gives are not always drawn. Like-named read-outs stand apart in the source and are kept apart here.

With `CCCCCc1ccc(C(=O)c2c(O)c3ccccc3[nH]c2=O)cc1` [Example 46, 4-hydroxy-3-(4-n-pentylbenzoyl)-2-quinolone], in data set [1], the inhibition in vivo at 10 mg/kg was determined as 3.2%. Moreover, the “SRS-A Inhibition Ratio %” value in data set [2] (setting [4]) is on record as 26.9%.
For `COC(=O)c1cccc2[nH]c(=O)c(C(=O)c3ccccc3)c(O)c12` [Example 3, Methyl 3-benzoyl-4-hydroxy-2-quinolone-5-carboxylate], the inhibition in vivo at 10 mg/kg in data set [1] amounted to 26.9%. For the same compound, the inhibition in vivo at 200 mg/kg in data set [3] (setting [5]) stood at 32.8%. Further, the “SRS-A Inhibition Ratio %” value in data set [2] (setting [4]) was determined as 26.4%.
For `CC(C)c1ccc2[nH]c(=O)c(C(=O)c3ccccc3Cl)c(O)c2c1` [Example 36, 3-(2-chlorobenzoyl)-4-hydroxy-6-isopropyl-2-quinolone], the inhibition in vivo at 10 mg/kg in data set [1] came out at 12.4%. Further, the “SRS-A Inhibition Ratio %” value in data set [2] (setting [4]) was 60.0%.
On the same counts, the results for `COc1ccc(C(=O)c2c(O)c3cc(C)ccc3[nH]c2=O)cc1OC` [Example 29, 3-(3,4-dimethoxybenzoyl)-4-hydroxy-6-methyl-2-quinolone] are 12.1% and 42.1%.
With `COc1ccc(C(=O)c2c(O)c3ccccc3[nH]c2=O)c(OC)c1OC` [Example 32, 4-hydroxy-3-(2,3,4-trimethoxybenzoyl)-2-quinolone], the inhibition in vivo at 10 mg/kg in data set [1] was 16.3%. The “SRS-A Inhibition Ratio %” value in data set [2] (setting [4]) was 100%. In addition, the “SRS-A Inhibition Ratio % (value in parentheses)” value in data set [2] (10^-7 M; guinea pig ileus, SRS-A 20 units; 5 min, 0.1 µM) worked out at 83.3%. Moreover, in the data set with male mice, the “Lethal Ratio (dead/treated)” value is recorded as 0/4.
For `CCCCCCc1ccc2[nH]c(=O)c(C(=O)c3ccc(OC)cc3)c(O)c2c1` [Example 59], the inhibition in vivo at 200 mg/kg in data set [3] (setting [5]) is 12.8%.
As to `CC(=O)Oc1ccccc1C(=O)O` [Acetylsalicylic Acid, reference compound], in data set [3], the inhibition in vivo at 200 mg/kg was 31.6%.
In the case of `O=C(c1ccc(Cl)cc1)c1c(O)c2ccccc2[nH]c1=O` [Example 39, 3-(4-chlorobenzoyl)-4-hydroxy-2-quinolone], the inhibition in vivo at 10 mg/kg in data set [1] stood at 19.8%. Besides, the “SRS-A Inhibition Ratio %” value in data set [2] (setting [4]) is listed as 27.0%.
`COc1ccc(C(=O)c2c(O)c3ccccc3[nH]c2=O)cc1OC` [Example 2, 3-(3,4-Dimethoxybenzoyl)-4-hydroxy-2-quinolone]: the inhibition in vivo at 10 mg/kg in data set [1] came out at 25.5%. In addition, in data set [2] (setting [4]), the “SRS-A Inhibition Ratio %” value was 24.2%.
For `Cc1ccc2c(O)c(C(=O)c3ccccc3)c(=O)[nH]c2c1` [Example 18, 3-benzoyl-4-hydroxy-7-methyl-2-quinolone] the same measures were 26% and 21.3%.
Regarding `COc1ccc(C(=O)c2c(O)c3cccc(C)c3[nH]c2=O)cc1OC` [Example 31, 3-(3,4-dimethoxybenzoyl)-4-hydroxy-8-methyl-2-quinolone], the inhibition in vivo at 10 mg/kg in data set [1] was 20.4%. Moreover, in data set [3] (setting [5]), the inhibition in vivo at 200 mg/kg amounted to 77.5%. Further, in data set [2] (setting [4]), the “SRS-A Inhibition Ratio %” value is reported as 20.5%.
For `COc1ccc(C(=O)c2c(O)c3ccc([N+](=O)[O-])cc3[nH]c2=O)cc1OC` [Example 30, 3-(3,4-dimethoxybenzoyl)-4-hydroxy-7-nitro-2-quinolone] the same measures were 18.7%, 21.3% and 26.7%.
On to `Cc1ccc(C(=O)c2c(O)c3ccccc3[nH]c2=O)c(C)c1` [Example 43, 3-(2,4-dimethylbenzoyl)-4-hydroxy-2-quinolone], for which, in data set [3] (setting [5]), the inhibition in vivo at 200 mg/kg was 15.7%.
For the compound `CC(C)c1ccc2[nH]c(=O)c(C(=O)c3ccc([N+](=O)[O-])cc3)c(O)c2c1` [Example 48, 4-hydroxy-6-isopropyl-3-(4-nitrobenzoyl)-2-quinolone], the inhibition in vivo at 10 mg/kg in data set [1] was 8.6%. Moreover, the inhibition in vivo at 200 mg/kg in data set [3] (setting [5]) was 12.5%.
Turning to `CCCCCCc1ccc2[nH]c(=O)c(C(=O)c3ccccc3)c(O)c2c1` [Example 7, 3-Benzoyl-6-n-hexyl-4-hydroxy-2-quinolone sodium salt], the “PCA Inhibition Ratio %” value in data set [1] (rat, sodium salt, 10 mg/kg) is 15.2%. For the same compound, the “SRS-A Inhibition Ratio %” value in data set [2] (10^-6 M, guinea pig ileus, SRS-A 20 units, 5 min, 1 µM, sodium salt) is 91.2%.
Take `CCCCCCc1ccc2[nH]c(=O)c(C(=O)c3ccccc3)c(O)c2c1` [Example 55]: the inhibition in vivo at 10 mg/kg in data set [1] is 13.6%. The “% Inhibition of carrageenin edema” value in data set [3] (setting [5]) is on record as 10.0%. The “SRS-A Inhibition Ratio %” value in data set [2] (10^-6 M, guinea pig ileus, SRS-A 20 units, 5 min, 1 µM) is 85.6%.
As to `Cc1cc(C)c2[nH]c(=O)c(C(=O)c3ccccc3Cl)c(O)c2c1` [Example 37, 3-(2-chlorobenzoyl)-6,8-dimethyl-4-hydroxy-2-quinolone], in data set [1], the inhibition in vivo at 10 mg/kg stood at 20.8%. In addition, the “SRS-A Inhibition Ratio %” value in data set [2] (setting [4]) was 28.3%.
For `CCCCc1ccc2[nH]c(=O)c(C(=O)c3ccccc3)c(O)c2c1` [Example 22, 3-benzoy-6-n-butyl-4-hydroxy-2-quinolone] the same measures were 17.4% and 39.5%.
For `CC(C)c1ccc2[nH]c(=O)c(C(=O)c3ccccc3)c(O)c2c1` [Example 5, 3-Benzoyl-4-hydroxy-6-isopropyl-2-quinoline], the inhibition in vivo at 200 mg/kg in data set [3] (setting [5]) amounted to 32.1%.
For the compound `COc1ccccc1C(=O)c1c(O)c2ccccc2[nH]c1=O` [Example 24, 4-hydroxy-3-(2-methoxybenzoyl)-2-quinolone], in data set [1], the inhibition in vivo at 10 mg/kg was 24.7%. Further, the “SRS-A Inhibition Ratio %” value in data set [2] (setting [4]) stood at 20.2%.
On the same counts, the results for `Cc1ccc2[nH]c(=O)c(C(=O)c3ccccc3)c(O)c2c1` [Example 17, 3-benzoyl-4-hydroxy-6-methyl-2-quinolone] are 35.4% and 21.9%.
As to `O=C(c1ccccc1)c1c(O)c2cc(Cl)ccc2[nH]c1=O` [Example 1, 3-Benzoyl-6-chloro-4-hydroxy-2-quinolone], the inhibition in vivo at 200 mg/kg in data set [3] (setting [5]) turned out to be 42.1%.
On the same count and under the same terms, the figure for `COc1ccc(C(=O)c2c(O)c3ccc([N+](=O)[O-])cc3[nH]c2=O)c(OC)c1OC` [Example 54, 4-hydroxy-7-nitro-3-(2,3,4-trimethoxybenzoyl)-2-quinolone] is 13.1%.
Consider `Cc1cc2[nH]c(=O)c(C(=O)c3ccccc3)c(O)c2cc1C` [Example 20, 3,-benzoyl-6,7-dimethyl-4-hydroxy-2-quinolone], for which the inhibition in vivo at 10 mg/kg in data set [1] was found to be 17.4%. In addition, the “SRS-A Inhibition Ratio %” value in data set [2] (setting [4]) came to 23.5%.
Regarding `O=C(c1cccc(C(F)(F)F)c1)c1c(O)c2ccccc2[nH]c1=O` [Example 44, 4-hydroxy-3-(3-trifluoromethylbenzoyl)-2-quinolone], in data set [3] (setting [5]), the inhibition in vivo at 200 mg/kg was 15.9%.
With `COc1ccc(C(=O)c2c(O)c3ccccc3[nH]c2=O)c(OC)c1` [Example 28, 3-(2,4-dimethoxybenzoyl)-4-hydroxy-2-quinolone], in data set [1], the inhibition in vivo at 10 mg/kg was found to be 21.2%. The “SRS-A Inhibition Ratio %” value in data set [2] (setting [4]) was found to be 42.9%.
On the same counts, the results for `O=C(O)c1ccc(C(=O)c2c(O)c3ccccc3[nH]c2=O)cc1` [Example 51, 3-(4-carboxybenzoyl)-4-hydroxy-2-quinolone] are 7.4% and 50.0%.
